As usually defined, the IC50 is the midpoint of a concentration-inhibition curve.

IC50 data for 13 compounds are collected here from patent publication US20220388969A1, “SUBSTITUTED 3,4-DIHYDROQ[…] THE TREATMENT AND PROPHYLAXIS OF HEPATITIS B VIRUS INFECTION” (priority 2019, published 2022).

The test system of experiment [1] is HBeAg level in HepDES19 cells (surrogate marker for HBV cccDNA). The experiment is described as follows: Engineered HepDES19 primary screen assay (HBeAg as surrogate marker for cccDNA). As to conditions: Hepatitis B virus, 120 h; HepDES19 cells, 5 days incubation with compound, HBeAg ELISA; read-out: IC50 (HBeAg level, HepDES19 primary screen assay). It is filed as cell-based. The text has this: The assay was employed to screen for novel cccDNA inhibitors. HepDES19 is a cccDNA-producing cell line. In this cell line, HBeAg in the cell culture supernatant as surrogate marker, as HBeAg production depends on cccDNA level and activity. HepDES19 is an engineered cell line which contains a 1.1 unit length HBV genome, and pgRNA transcription from the transgene is controlled by Tetracycline (Tet). In the absence of Tet, pgRNA transcription will be induced, but HBV e antigen (HBeAg) could not be produced from this pgRNA due to very short leader sequence before the HBeAg start codon and the start codon is disrupted. Only after cccDNA is formed, the missing leader sequence and start codon mutation would be restored from the 3′-terminal redundancy of pgRNA, and then HBeAg could be synthesized. Therefore, HBeAg could be used as a surrogate marker for cccDNA (Zhou, T. et al., Antiviral Res.(2006), 72(2), 116-124; Guo, H. et al., J. Virol. (2007), 81(22), 12472-12484).
HepDES19 cells were seeded at 2×10^6 cells per T150 flask and cultured with the culture medium (Dulbecco's Modified Eagle Medium: Nutrient Mixture F-12 [DMEM-F12, Gibco Cat. 11320-82], 10% Fetal Bovine Serum [FBS, Clontech Cat. 631101], 0.1 mM Non-Essential Amino Acids Solution [NEAA, Gibco Cat. 11140-050], 50 μg/mL Penicillin-Streptomycin [PS, Invitrogen Cat. 15140-163], 500 μg/mL Geneticin [G418, Invitrogen Cat. 10131-027]) containing 3 μg/mL Tet (Sigma, Cat. 87128) for 5 days. Cells were then seeded at 4×10^6 cells per T150 in the same culture medium as described above in the absence of Tet for 8 days. Cells were then harvested and frozen at density of 2×10^6 cells per mL. For compound testing, the frozen cells were thawed and seeded into 96-well plates at a density of 6 ×10^4 cells per well. At 24hours after seeding, half log serial dilutions of compounds made with Dimethyl sulfoxide (DMSO, Sigma, Cat. D2650) were further diluted with the same culture medium as described above before they were added to the cells to reach desired final compound concentrations and 1% DMSO concentration. Plates were then incubated at 37° C. for another 5 days before measurement of HBeAg level and cell viability. Intracellular HBeAg level were measured with enzyme-linked immunosorbent assay (ELISA) kit (Shanghai Kehua Diagnostic Medical Products Co., Ltd). Cell viability was assessed using Cell Counting Kit-8 (DonJindo, Cat. CK04-20). IC50 values were derived from the dose-response curve using 4 parameter logistic curve fit method.
The compounds of the present invention were tested for their capacity to inhibit extracellular HBeAg level as described herein.

The test system of experiment [2] is HBsAg in HBV-infected primary human hepatocytes. Briefly: Cryopreserved primary human hepatocytes (PHH) HBV infection assay, extracellular HBsAg. It counts as cell-based. The conditions noted are these: Hepatitis B virus, Hepatocyte, 216 h, read-out: HBsAg IC50. The method, then:
This assay is used to confirm the anti-HBV effect of the compounds in HBV PHH infection assay. Cryopreserved PHH (BioreclamationlVT, Lot YJM) was thawed at 37° C. and gently transferred into pre-warmed InVitroGRO HT medium (BioreclamationIVT, Cat. S03317). The mixture was centrifuged at 70 relative centrifugal force (RCF) for 3 minutes at RT, and the supernatant was discarded. Pre-warmed InVitroGRO CP medium (BioreclamationlVT, Cat# S03316) was added to the cell pellet to gently re-suspend cells. The cells were seeded at the density of 5.8×10^4 cells per well to collagen I coated 96-well plate (Gibco, Cat. A1142803) with the InVitroGRO CP medium. All plates were incubated at 37° C. with 5% CO2 and 85% humidity.
At 20 hours after plating, the medium was changed to PHH culture medium (Dulbecco's Modified Eagle Medium (DMEM)/F12 (1:1) (Gibco, Cat. 11320-033), 10% fetal bovine serum (Gibco Cat. 10099141), 100 U/mL penicillin, 100 μg/mL streptomycin (Gibco, Cat. 151401-122), 5 ng/mL human epidermal growth factor (Invitrogen Cat. PHG0311L), 20 ng/mL dexamethasone (Sigma, Cat. D4902) and 250 ng/mL human recombinant insulin (Gibco, Cat. 12585-014)). And the cells were incubated at 37° C. with 5% CO2 and 85% humidity for 4 hours. The medium was then changed to pre-warmed PHH culture medium containing 4% polyethylene glycol (PEG) MW8000 (Sigma, Cat. P1458-50ML) and 1% DMSO (Sigma, Cat. D2650). 5.8×10^6 genomic equivalents of HBV were added into the medium.
At 24 hours post-infection, the cells were gently washed with PBS and refreshed with PHH culture medium supplemented with 1% DMSO, and 0.25 mg/mL Matrix gel (Corning, Cat. 356237) at 200 μL per well. All plates were immediately placed in at 37° C. CO2 incubator.
24 hours later, serial dilutions of compounds made with DMSO were further diluted with the same culture medium (PHH culture medium supplemented with 1% DMSO and 0.25 mg/mL Matrix gel as described above) before they were added to the cells to reach desired final compound concentrations and 1% DMSO concentration. The medium containing the compounds were refreshed every three days.
At 9 days post-compound treatment, extracellular HBsAg level were measured with Chemiluminescence Immuno Assay (CLIA) kit (Autobio, HBsAg Quantitative CLIA).
HBsAg IC50 values were derived from the dose-response curve using 4 parameter logistic curve fit method. The compounds of formula (I) have HBsAg IC50<20 μM, particularly <1 μM.

In the case of `COc1ccc(C2=Nc3c(Cl)cccc3C(C(=O)NCCO)N2)cc1` (centres unmarked) [Example 16, 8-chloro-N-(2-hydroxyethyl)-2-(4-methoxyphenyl)-3,4-dihydroquinazoline-4-carboxamide], the results for the IC50 in experiment [1] and in experiment [2] were 2030 nM and 4540 nM, respectively.

For `O=C(O)C1NC(c2ccccc2)=Nc2c(Cl)cccc21` (centres unmarked) [Example 2, 8-chloro-2-phenyl-3,4-dihydroquinazoline-4-carboxylic Acid], the IC50 worked out at 2990 nM in experiment [1] and 415 nM in experiment [2].

For `COc1ccc(C2=Nc3c(Cl)cccc3C(C(=O)O)N2)cc1` (centres unmarked) [Example 4, 8-chloro-2-(4-methoxyphenyl)-3,4-dihydroquinazoline-4-carboxylic Acid], the IC50 in experiment [1] is 880 nM; in experiment [2] it was 1950 nM.

In the case of `CC1NC(c2ccc(OCCOC3CC(C(=O)O)C3)cc2)=Nc2cc(C(F)(F)F)ccc21` (centres unmarked) [Example 19, 3-[2-[4-[4-methyl-7-(trifluoromethyl)-3,4-dihydroquinazolin-2-yl]phenoxy]ethoxy]cyclobutanecarboxylic Acid], the IC50 in experiment [1] was found to be 4400 nM; in experiment [2] it was 7630 nM.

On to `O=C(O)C1NC(c2ccc(Cl)cc2)=Nc2c(Cl)cccc21` (centres unmarked) [Example 3, 8-chloro-2-(4-chlorophenyl)-3,4-dihydroquinazoline-4-carboxylic Acid], for which the IC50 in experiment [1] was 10300 nM; in experiment [2], 1500 nM.

As to `NC(=O)C1NC(c2ccc(Br)cc2)=Nc2c(Cl)cccc21` (centres unmarked) [Example 13, 2-(4-bromophenyl)-8-chloro-3,4-dihydroquinazoline-4-carboxamide], the IC50 was determined as 70 nM in experiment [1] and 2840 nM in experiment [2].

As for `O=C(O)C1NC(c2ccc(Br)cc2)=Nc2c(Cl)cccc21` (centres unmarked) [Example 1, 2-(4-bromophenyl)-8-chloro-3,4-dihydroquinazoline-4-carboxylic Acid], the values for the half-maximal inhibitory concentration (IC50) in experiment [1] and in experiment [2] were 5650 nM and 3070 nM, respectively.

As for `Cc1cc(OCCOC2CC(C(=O)O)C2)ccc1C1=Nc2c(Cl)cccc2C(C)N1` (centres unmarked) [Example 22, 3-[2-[4-(8-chloro-4-methyl-3,4-dihydroquinazolin-2-yl)-3-methyl-phenoxy]ethoxy]cyclobutanecarboxylic Acid], the half-inhibitory concentration (IC50) in experiment [1] is 8430 nM; in experiment [2] it was 670 nM.

For the compound `COC(=O)C1NC(c2ccc(Br)cc2)=Nc2c(Cl)cccc21` (centres unmarked) [Example 12, methyl 2-(4-bromophenyl)-8-chloro-3,4-dihydroquinazoline-4-carboxylate], the IC50 in experiment [1] worked out at 330 nM; in experiment [2], 1360 nM.

`Cc1cc(C2=Nc3c(Cl)cccc3C(C(=O)O)N2)ccc1Br` (centres unmarked) [Example 5, 2-(4-bromo-3-methyl-phenyl)-8-chloro-3,4-dihydroquinazoline-4-carboxylic Acid]: the results for the half-inhibitory concentration (IC50) in experiment [1] and in experiment [2] were 560 nM and 4370 nM, respectively.

On to `O=C(O)C1NC(c2ccc(Br)cc2)=Nc2cc(C(F)(F)F)ccc21` (centres unmarked) [Example 7, 2-(4-bromophenyl)-7-(trifluoromethyl)-3,4-dihydroquinazoline-4-carboxylic Acid], for which the IC50 in experiment [1] was determined as 3010 nM; in experiment [2], 2310 nM.

Turning to `CC(C)C1NC(c2ccc(Br)cc2)=Nc2c(Cl)cccc21` (centres unmarked) [Example 36, 2-(4-bromophenyl)-8-chloro-4-isopropyl-3,4-dihydroquinazoline], the figures for the IC50 in experiment [1] and in experiment [2] were 6530 nM and 42 nM, respectively.

`COC(=O)c1ccc(-c2csc(C3=Nc4c(Cl)cccc4C(C)N3)n2)cc1` (centres unmarked) [Example 32, methyl 4-[2-(8-chloro-4-methyl-3,4-dihydroquinazolin-2-yl)thiazol-4-yl]benzoate]: the IC50 came out at 860 nM in experiment [1] and 24 nM in experiment [2].
